Measured values as given in patent US9723860B2, “Method for improving economic performance in poultry husbandry” (PURAC BIOCHEM BV, priority 2012, dated 2017).

Tested on: Broiler chickens
Assay: Example 2: 20 day performance of broilers on decreasing levels of lactylate mixture or diclazuril
Assay type: in vivo, chicken (broilers)
Conditions: day 20
Description: Broilers were reared on a diet containing either decreasing levels of a mixture of lauric and myristic lactylates (lactylate test diet), or an effective dose of diclazuril (coccidiostat diet), or a filler consisting of corn starch and kaolin. The birds fed the test diet including the lactylates received the lactylates from the first feed onwards. For the first 10 days, the dosing level of lactylates was 0.4%. From day 11 onwards, the dosing level was reduced to 0.3%. At day 20, the economic performance of the broilers was evaluated using the body weight, body weight gain, feed consumption and feed-to-gain ratio.

[1] = lactylates 0.4% first 10 days, 0.3% from day 11, diclazuril effective dose, in diet

SMILES: N#CC(c1ccc(Cl)cc1)c1c(Cl)cc(-n2ncc(=O)[nH]c2=O)cc1Cl (centres unmarked) [Coccidiostat, diclazuril]
- economic performance versus control group: did not improve performance
- Body weight [1]: 850 g
- Body weight gain [1]: 804 g
- Feed Consumption [1]: 1115 g
- Feed-to-Gain ratio [1]: 1.388 g/g
